Data from ChEMBL document CHEMBL1138613, “1,5-Benzodiazepine inhibitors of HCV NS5B polymerase” (Bioorg Med Chem Lett, 2009).

How the values were obtained:
[1] = Inhibition of HCV NS5B polymerase; design: species or system Hepacivirus hominis
[2] = test system: Hepatitis C virus; assay: Inhibition of HCV 1b J4 recombinant NS5B Cdelta 21 polymerase overexpressed in Escherichia coli BL21 (DE3) assessed as [alpha33P]UTP incorporation by scintillation proximity analysis; design: species or system Hepatitis C virus subtype 1b
[3] = test system: Hepatitis C virus; assay: Antiviral activity against HCV 1b in human HuH7cells by luciferase reporter replicon assay; assay type: functional, organism-based, Hepacivirus hominis; conditions: genotype 1b, Huh-7
[4] = Cytotoxicity against human HuH7 cells after 5 days by ATPlite luminescence assay; assay type: cell-based, Huh-7
[5] = Apparent permeability from apical to basolateral side of human Caco-2 cells; assay type: ADME, cell-based
[6] = Selectivity index, ratio of CC50 for human HuH7 cells to EC50 for HCV 1b in human HuH7cells; assay type: functional, Huh-7

| SMILES | IC50 [1] [µM] | IC50 [2] [µM] | EC50 [3] [µM] | CC50 at 120 h [4] [µM] | Papp A→B [5] [×10⁻⁶ cm/s] | Selectivity Index [6] |
| --- | --- | --- | --- | --- | --- | --- |
| O=C(O)/C(=C/c1ccc(Oc2ccccc2Br)cc1)NC(=O)c1ccccc1 | 0.1 |  |  |  |  |  |
| O=C(O)/C(=C/c1ccc(Oc2ccccc2)cc1)NC(=O)c1ccccc1 | 17 |  |  |  |  |  |
| O=C(O)/C(=C/c1ccc(Oc2c(F)cccc2Br)cc1)NC(=O)c1ccccc1 | 0.03 |  |  |  |  |  |
| CC1(C)CC(=O)C2=C(C1)Nc1c(O)cccc1N(C(=O)c1ccncn1)C2c1ccc(OCc2ccccc2)cc1F (stereo unspecified) |  | 0.06 | 0.73 | > 32 |  |  |
| CC1(C)CC(=O)C2=C(C1)Nc1c(O)cccc1N(C(=O)c1nccs1)C2c1ccc(OCc2ccccc2)cc1F (stereo unspecified) |  | 0.111 | 1.7 | 19 |  |  |
| CC1(C)CC(=O)C2=C(C1)Nc1c(O)cccc1N(C(=O)c1ccccn1)C2c1ccc(OCc2ccccc2)cc1F (stereo unspecified) |  | 0.051 | 0.36 | 15 |  |  |
| CC(=O)N1c2cccc(O)c2NC2=C(C(=O)CC(C)(C)C2)C1c1ccc(Oc2ccccc2)cc1Cl (stereo unspecified) |  | 0.16 | 9.9 |  |  |  |
| CC(=O)N1c2cccc(O)c2NC2=C(C(=O)CC(C)(C)C2)C1c1ccc(Cl)cc1Cl (stereo unspecified) |  | 0.1 | 3 |  |  |  |
| CC(=O)N1c2cccc(O)c2NC2=C(C(=O)CC(C)(C)C2)[C@@H]1c1ccc(Cl)cc1Cl |  |  | 2.42 |  |  |  |
| CC(=O)N1c2ccncc2NC2=C(C(=O)CC(C)(C)C2)C1c1ccc(Cl)cc1Cl (stereo unspecified) |  | 0.51 | > 32 |  |  |  |
| CC(=O)N1c2ncnc(O)c2NC2=C(C(=O)CC(C)(C)C2)C1c1ccc(Cl)cc1Cl (stereo unspecified) |  | > 32 | > 32 |  |  |  |
| CC(=O)N1c2cccc(O)c2NC2=C(C(=O)CC(C)(C)C2)C1C1CCCCC1 (stereo unspecified) |  | 22 | 0.74 |  |  |  |
| CC(=O)N1CC2=C(CC(C)(C)CC2=O)Nc2c(O)cccc21 |  | > 32 | > 32 |  |  |  |
| Cc1nc(C(=O)N2c3cccc(O)c3NC3=C(C(=O)CC(C)(C)C3)C2c2ccc(OCc3ccccc3)cc2F)cs1 (stereo unspecified) |  | 0.143 | 0.97 | > 32 |  |  |
| CC(=O)N1c2ncccc2NC2=C(C(=O)CC(C)(C)C2)C1c1ccc(Cl)cc1Cl (stereo unspecified) |  | 8.04 | > 32 |  |  |  |
| CC(C)C(=O)N1c2cccc(O)c2NC2=C(C(=O)CC(C)(C)C2)C1c1ccc(OCc2ccccc2)cc1F (stereo unspecified) |  | 0.123 | 1.3 | 14 |  |  |
| CC(=O)N1c2cccc(O)c2NC2=C(C(=O)CC(C)(C)C2)C1c1ccco1 (stereo unspecified) |  | 21 | 43 |  |  |  |
| CC(=O)N1c2cccc(O)c2NC2=C(C(=O)CC(C)(C)C2)C1c1nccn1C (stereo unspecified) |  | > 32 | > 32 |  |  |  |
| Cc1cc(OCc2ccccc2)ccc1C1C2=C(CC(C)(C)CC2=O)Nc2c(O)cccc2N1C(=O)C(C)C (stereo unspecified) |  | 0.124 | 1.6 | 15 |  |  |
| CC(=O)N1c2ccccc2NC2=C(C(=O)CC(C)(C)C2)C1c1ccc(Cl)cc1Cl (stereo unspecified) |  | 3.1 | > 32 |  |  |  |
| CC(=O)N1c2cccc(Br)c2NC2=C(C(=O)CC(C)(C)C2)C1c1ccc(Cl)cc1Cl (stereo unspecified) |  | 6.12 | 7.8 |  |  |  |
| CC(=O)N1c2cccc(C#N)c2NC2=C(C(=O)CC(C)(C)C2)C1c1ccc(Cl)cc1Cl (stereo unspecified) |  | 6.97 | 15.4 |  |  |  |
| Cc1cccc(C(=O)N2c3cccc(O)c3NC3=C(C(=O)CC(C)(C)C3)C2c2ccc(OCc3ccccc3)cc2F)n1 (stereo unspecified) |  | 0.07 | 0.5 | 18 |  |  |
| CC1(C)CC(=O)C2=C(C1)Nc1c(O)cccc1N(C(=O)c1cccc(F)n1)C2c1ccc(OCc2ccccc2)cc1F (stereo unspecified) |  | 0.077 | 0.86 | > 32 |  |  |
| CC1(C)CC(=O)C2=C(C1)Nc1c(O)cccc1N(C(=O)c1cscn1)C2c1ccc(OCc2ccccc2)cc1F (stereo unspecified) |  | 0.039 | 0.76 | 29 |  |  |
| Cc1nc(C(=O)N2c3cccc(O)c3NC3=C(C(=O)CC(C)(C)C3)[C@@H]2c2ccc(OCc3ccccc3)cc2F)c(C)o1 |  | 0.029 | 0.27 | 28 | 10.9 | 100 |

| SMILES | IC50 [1] [µM] | IC50 [2] [µM] | EC50 [3] [µM] | CC50 at 120 h [4] [µM] | Papp A→B [5] [×10⁻⁶ cm/s] | Selectivity Index [6] |
| --- | --- | --- | --- | --- | --- | --- |
| Cc1cc(C(=O)N2c3cccc(O)c3NC3=C(C(=O)CC(C)(C)C3)C2c2ccc(OCc3ccccc3)cc2F)no1 (stereo unspecified) |  | 0.12 | 1.8 | 45 |  |  |
| CC1(C)CC(=O)C2=C(C1)Nc1c(O)cccc1N(C(=O)c1ncn[nH]1)C2c1ccc(OCc2ccccc2)cc1F (stereo unspecified) |  | 0.021 | 2.4 | > 32 |  |  |
| CC1(C)CC(=O)C2=C(C1)Nc1c(O)cccc1N(C(=O)c1cccc(Cl)n1)C2c1ccc(OCc2ccccc2)cc1F (stereo unspecified) |  | 0.108 | 0.69 | 13 |  |  |
| CC1(C)CC(=O)C2=C(C1)Nc1c(O)cccc1N(C(=O)c1ccco1)C2c1ccc(OCc2ccccc2)cc1F (stereo unspecified) |  | 0.075 | 2.2 | 16 |  |  |
| Cc1nc(C(=O)N2c3cccc(O)c3NC3=C(C(=O)CC(C)(C)C3)C2c2ccc(OCc3ccccc3)cc2F)co1 (stereo unspecified) |  | 0.063 | 1.6 | 29 |  |  |
| Cc1cccc(C(=O)N2c3cccc(O)c3NC3=C(C(=O)CC(C)(C)C3)[C@@H]2c2ccc(OCc3ccccc3)cc2F)n1 |  | 0.089 | 0.4 | 21 | 11.6 | 50 |
| Cc1cccc(C(=O)N2c3cccc(O)c3NC3=C(C(=O)CC(C)(C)C3)[C@H]2c2ccc(OCc3ccccc3)cc2F)n1 |  | > 11 | 5.7 | 18 |  |  |
| Cc1cc(C(=O)N2c3cccc(O)c3NC3=C(C(=O)CC(C)(C)C3)C2c2ccc(OCc3ccccc3)cc2F)nn1C (stereo unspecified) |  | 0.05 | 1 | 25 |  |  |
| Cc1nc(C(=O)N2c3cccc(O)c3NC3=C(C(=O)CC(C)(C)C3)C2c2ccc(OCc3ccccc3)cc2F)c(C)o1 (stereo unspecified) |  | 0.079 | 0.57 | 28 |  |  |
| Cc1nc(C(=O)N2c3cccc(O)c3NC3=C(C(=O)CC(C)(C)C3)[C@H]2c2ccc(OCc3ccccc3)cc2F)c(C)o1 |  | 27 | 3.6 | 13 |  |  |
| CC1(C)CC(=O)C2=C(C1)Nc1c(O)cccc1N(C(=O)c1cccnc1)C2c1ccc(OCc2ccccc2)cc1F (stereo unspecified) |  | 0.109 | 2.3 | 20 |  |  |
| CC1(C)CC(=O)C2=C(C1)Nc1c(O)cccc1N(C(=O)c1ccncc1)C2c1ccc(OCc2ccccc2)cc1F (stereo unspecified) |  | 0.086 | 3.3 | 76 |  |  |
| CC(=O)N1c2cccc(O)c2NC2=C(C(=O)CC(C)(C)C2)[C@H]1c1ccc(Cl)cc1Cl |  | 14.4 | 14.5 |  |  |  |
| CC(=O)N1c2ncncc2NC2=C(C(=O)CC(C)(C)C2)C1c1ccc(Cl)cc1Cl (stereo unspecified) |  | 0.51 | > 32 |  |  |  |
| CC(=O)N1c2cccc(O)c2NC2=C(C(=O)CC(C)(C)C2)C1c1ccc(Oc2c(F)cccc2Br)cc1Cl (stereo unspecified) |  | 0.12 | 6.3 |  |  |  |
| CC(C)C(=O)N1c2cccc(O)c2NC2=C(C(=O)CC(C)(C)C2)C1c1ccc(OCc2ccccc2)cc1Cl (stereo unspecified) |  | 0.154 | 1.5 | 17 |  |  |
| CC(=O)N1c2cccc(O)c2NC2=C(C(=O)CC(C)(C)C2)C1c1sccc1OCc1ccccc1 (stereo unspecified) |  | 0.18 | 11 |  |  |  |
| CC(=O)N1c2cccc(O)c2NC2=C(C(=O)CC(C)(C)C2)C1c1ccc(OCc2ccccc2)cc1Cl (stereo unspecified) |  | 0.04 | 1.5 | 15 |  |  |
| CC(=O)N1c2ccccc2NC2=C(C(=O)CC(C)(C)C2)[C@@H]1c1ccc(OCc2ccccc2)c(Cl)c1 |  | 1 |  |  |  |  |
| CC(=O)N1c2cccc(C)c2NC2=C(C(=O)CC(C)(C)C2)C1c1ccc(Cl)cc1Cl (stereo unspecified) |  | 4.78 | 14.6 |  |  |  |
| CC(=O)N1c2cccc(O)c2NC2=C(C(=O)CC(C)(C)C2)C1c1ccc(Oc2ccccc2Br)cc1Cl (stereo unspecified) |  | 0.1 | 7.1 |  |  |  |
| CC(=O)N1c2ccccc2NC2=C(C(=O)CC(C)(C)C2)C1c1ccc(OCc2ccccc2)cc1Cl (stereo unspecified) |  | 0.9 | 2.3 |  |  |  |
| CC(=O)N1c2cccc(O)c2NC2=C(C(=O)CC(C)(C)C2)C1c1ccccn1 (stereo unspecified) |  | > 32 | > 32 |  |  |  |
| CC(=O)N1c2cccc(O)c2NC2=C(C(=O)CC(C)(C)C2)C1c1cn(C)c2ccccc12 (stereo unspecified) |  | 13 | > 32 |  |  |  |
| CC(C)C(=O)N1c2cccc(O)c2NC2=C(C(=O)CC(C)(C)C2)C1c1ccc(OCc2ccccc2)cc1Br (stereo unspecified) |  | 0.087 | 2.4 | 12 |  |  |
